Source: patent publication US20190117716A1, “FATTY ACID COMPOSITION AND PHARMACEUTICAL PREPARATION AND APPLICATION THEREOF” (priority 2011, published 2019)

Assay: single fatty acids used alone (inventor's research)
Conditions: any one fatty acid used alone, compared with the combination

Row | SMILES | curative effect when used alone
1 | CCCCCCCCCCCCCCCCCCCC(=O)O [arachidic acid] | relatively unobvious
2 | CCCCC/C=C\C/C=C\CCCCCCCC(=O)O [linoleic acid] | relatively unobvious
3 | CCCCCCCC/C=C\CCCCCCCC(=O)O [oleic acid] | relatively unobvious
4 | CCCCCCCCCCCCCCCC(=O)O [palmitic acid] | relatively unobvious
5 | CCCCCC/C=C\CCCCCCCC(=O)O [palmitoleic acid] | relatively unobvious
6 | CCCCCCCCCCCCCCCCCC(=O)O [stearic acid] | relatively unobvious
